How the values were obtained:
Assay in all cases: -log10 GI50 (growth inhibition 50%) (-log10(M)); higher = more potent growth inhibition
BT20 = system: BT20
Procedure, shortened: (§1)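 A value carrying a < qualifier equals the top dose tested. Each compound was tested in triplicate on breast cancer cell lines for 72 hours at nine doses in 1:5 serial dilution, using a luminescence read-out against a time-zero plate. Nonlinear least squares fitting of a Gompertz curve gave GI50, the molar concentration causing the set level of growth inhibition, which is reported as its negative logarithm. The logarithm is base 10.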

21MT1 = system: 21MT1
Procedure, shortened: as §1

21NT = system: 21NT
Procedure, shortened: as §1

SUM52PE = system: SUM52PE
Procedure, shortened: as §1

MDAMB453 = system: MDAMB453
Procedure, shortened: as §1

HCC1428 = system: HCC1428
Procedure, shortened: as §1

SUM185PE = system: SUM185PE
Procedure, shortened: as §1

T47D_KBluc = system: T47D_KBluc
Procedure, shortened: as §1

ZR7530 = system: ZR7530
Procedure, shortened: as §1

HCC1937 = system: HCC1937
Procedure, shortened: as §1

HCC202 = system: HCC202
Procedure, shortened: as §1

BT474 = system: BT474
Procedure, shortened: as §1

ZR75B = system: ZR75B
Procedure, shortened: as §1

## CCN(CC)C(=S)SSC(=S)N(CC)CC [Disulfiram]
BT20
  -log10 GI50: 7.3
21MT1
  -log10 GI50: < 4.18
21NT
  -log10 GI50: 4.72
SUM52PE
  -log10 GI50: 4.53
MDAMB453
  -log10 GI50: 6.84
HCC1428
  -log10 GI50: 4.97
SUM185PE
  -log10 GI50: < 4.18
T47D_KBluc
  -log10 GI50: 7
ZR7530
  -log10 GI50: 7.05
HCC1937
  -log10 GI50: 6.89
HCC202
  -log10 GI50: 4.84
BT474
  -log10 GI50: < 4.18

## COc1ccc(-c2cc3c(C)nc(N)nc3n([C@H]3CC[C@H](OCCO)CC3)c2=O)cn1
BT20
  -log10 GI50: 5.44
21MT1
  -log10 GI50: 6.54
21NT
  -log10 GI50: 5.84
SUM52PE
  -log10 GI50: 7.26
MDAMB453
  -log10 GI50: 6.88
HCC1428
  -log10 GI50: 6.51
SUM185PE
  -log10 GI50: 6.77
T47D_KBluc
  -log10 GI50: 7.25
ZR75B
  -log10 GI50: 7.28
HCC1937
  -log10 GI50: 6.92
BT474
  -log10 GI50: 6.91

## COC(=O)Nc1nc2cc(C(=O)c3ccccc3)ccc2[nH]1 [Mebendazole]
BT20
  -log10 GI50: 6.19
21MT1
  -log10 GI50: 4.74
21NT
  -log10 GI50: 6.08
SUM52PE
  -log10 GI50: 6.85
MDAMB453
  -log10 GI50: 6.75
HCC1428
  -log10 GI50: < 4.18
SUM185PE
  -log10 GI50: 6.3
T47D_KBluc
  -log10 GI50: 4.58
ZR75B
  -log10 GI50: 6.81
ZR7530
  -log10 GI50: 6.35
HCC1937
  -log10 GI50: 4.9
HCC202
  -log10 GI50: 6.68
BT474
  -log10 GI50: 6.5

## Cc1c(O)cccc1C(=O)N[C@@H](CSc1ccccc1)[C@H](O)CN1C[C@H]2CCCC[C@H]2C[C@H]1C(=O)NC(C)(C)C [Nelfinavir]
BT20
  -log10 GI50: 5.16
21MT1
  -log10 GI50: 4.87
21NT
  -log10 GI50: 4.57
SUM52PE
  -log10 GI50: 4.75
MDAMB453
  -log10 GI50: 5.2
HCC1428
  -log10 GI50: 5.16
SUM185PE
  -log10 GI50: 5.24
T47D_KBluc
  -log10 GI50: < 4.48
ZR75B
  -log10 GI50: 5.13
ZR7530
  -log10 GI50: 5.74
HCC1937
  -log10 GI50: 5.15
HCC202
  -log10 GI50: 5.34
BT474
  -log10 GI50: 4.9

From the supplement of paper PMC3937590
